Test results taken from publication PMC10708113, “Comparative Study of Essential Oils from Different Organs of Syzygium cumini (Pamposia) Based on GC/MS Chemical Profiling and In Vitro Antiaging Activity” (Molecules, 2023).
In brackets after ≈: the same amount, converted by molar mass.

Biological target: T1, collagenase
T1 construct: gene colG
Test: fluorometric collagenase inhibitor screening kit
Format: biochemical
Details: 15 min preincubation at 25 °C; kinetic read 60 min at 37 °C; ex 490 / em 520 nm

Question: For `Cc1cnc(NC(=O)C2=C(O)c3ccccc3S(=O)(=O)N2C)s1` [Meloxicam], which IC50 is on record?
Answer: 38.48 mg/L (≈ 110 µM)
